Source: the supplement of paper PMC13380429

Assays:
Conditions in all cases: 72 h
[1] = tested on: U2OS; assay: drug sensitivity score (DSS) for viability; higher = more toxic; extreme values may be limits of the assay
[2] = tested on: Vero E6; assay: as above
[3] = tested on: Calu-3; assay: as above
[4] = tested on: Caco-2; assay: as above
[5] = tested on: HepG2; assay: as above
[6] = tested on: U2OS; assay: relative viability EC50 (midpoint between 100% and the lowest measured viability); higher = less toxic
[7] = tested on: Vero E6; assay: as above
[8] = tested on: Caco-2; assay: as above
[9] = tested on: HepG2; assay: as above
[10] = tested on: U2OS; assay: cell viability relative to DMSO; higher = less toxic
[11] = tested on: Vero E6; assay: as above
[12] = tested on: Calu-3; assay: as above
[13] = tested on: Caco-2; assay: as above
[14] = tested on: HepG2; assay: as above

Compound	drug sensitivity score [1]	drug sensitivity score [2]	drug sensitivity score [3]	drug sensitivity score [4]	drug sensitivity score [5]	relative viability EC50 [6] [µM]	relative viability EC50 [7] [µM]	relative viability EC50 [8] [µM]	relative viability EC50 [9] [µM]	cell viability ([10]; 1 nM) [%]	cell viability ([10]; 10 nM) [%]	cell viability ([10]; 100 nM) [%]	cell viability ([10]; 1000 nM) [%]	cell viability ([10]; 10000 nM) [%]	cell viability ([11]; 1 nM) [%]	cell viability ([11]; 10 nM) [%]	cell viability ([11]; 100 nM) [%]	cell viability ([11]; 1000 nM) [%]	cell viability ([11]; 10000 nM) [%]	cell viability ([12]; 1 nM) [%]	cell viability ([12]; 10 nM) [%]	cell viability ([12]; 100 nM) [%]	cell viability ([12]; 1000 nM) [%]	cell viability ([12]; 10000 nM) [%]	cell viability ([13]; 1 nM) [%]	cell viability ([13]; 10 nM) [%]	cell viability ([13]; 100 nM) [%]	cell viability ([13]; 1000 nM) [%]	cell viability ([13]; 10000 nM) [%]	cell viability ([14]; 1 nM) [%]	cell viability ([14]; 10 nM) [%]	cell viability ([14]; 100 nM) [%]	cell viability ([14]; 1000 nM) [%]	cell viability ([14]; 10000 nM) [%]
O=C(CCCCCCC(=O)NO)NO [SBHA]	0.7	0.4	2.4	0.2	3.6	> 10	> 10	> 10	2.27	104	96.3	100	98.2	81.7	106	99.8	99.6	102	80.4	104	95.9	86.4	90.1	72.6	95.6	99.4	109	98.1	86.7	104	96.9	105	94.4	48.7
O=C(NO)c1ccc2[nH]c(=O)c(CCCc3ccccc3)nc2c1 [TCS-2210]	2.4	0	4.3	0	4.1	–	> 10	> 10	2.44	99.1	96.3	102	94.4	66.8	87.5	96.1	89	98.4	101	136	93.7	98	78.4	62	94.2	95.8	101	94.8	96.4	108	96.5	100	94.7	39.9
Oc1nc(-c2ccc(C(F)(F)F)cc2)nc2c1CSCC2 [XAV-939]	0	2.4	2.7	0	0	> 10	–	> 10	> 10	105	101	101	99.2	96.4	94.6	98.5	97	90.4	69.6	110	94	97.1	84.1	71.7	103	97	99.8	92.3	101	101	108	98.2	99.7	94.4
